Residues, ends and D or L forms follow the SMILES beside them.
Target: AChE (Homo sapiens, UniProt P22303)
Experiment: In vitro anti-AChE assay
Type: biochemical

AChE, sequence (P22303 32-614): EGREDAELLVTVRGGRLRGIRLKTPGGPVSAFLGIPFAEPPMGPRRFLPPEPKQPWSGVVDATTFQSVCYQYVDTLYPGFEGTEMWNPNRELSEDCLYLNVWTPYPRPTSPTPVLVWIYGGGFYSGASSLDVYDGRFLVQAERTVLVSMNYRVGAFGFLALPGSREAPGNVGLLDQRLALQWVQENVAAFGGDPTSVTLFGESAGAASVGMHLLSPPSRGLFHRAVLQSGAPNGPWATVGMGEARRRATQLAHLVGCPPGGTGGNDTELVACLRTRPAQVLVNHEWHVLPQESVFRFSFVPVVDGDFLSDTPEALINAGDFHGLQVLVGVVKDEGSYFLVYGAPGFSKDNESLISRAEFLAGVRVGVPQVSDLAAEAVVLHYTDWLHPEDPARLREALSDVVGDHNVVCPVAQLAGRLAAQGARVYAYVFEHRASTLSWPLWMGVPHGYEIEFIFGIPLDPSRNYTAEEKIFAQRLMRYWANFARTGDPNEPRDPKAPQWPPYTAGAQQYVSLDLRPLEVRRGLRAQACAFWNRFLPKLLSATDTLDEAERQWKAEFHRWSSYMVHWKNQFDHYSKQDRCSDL

SMILES | IC50 [nM]
CSCC[C@H](NC(=O)[C@@H](NC(=O)[C@H](Cc1c[nH]cn1)NC(=O)[C@@H](N)CC(C)C)[C@@H](C)O)C(=O)N[C@@H](CCC(=O)O)C(=O)N[C@@H](CC(C)C)C(=O)N[C@@H](CC(C)C)C(=O)O [LHTMELL] (H-LHTMELL-OH) | 10600
CC[C@H](C)[C@H](NC(=O)[C@H](Cc1c[nH]c2ccccc12)NC(=O)[C@@H](N)C(C)C)C(=O)N[C@H](C(=O)NCC(=O)N[C@@H](Cc1ccccc1)C(=O)N[C@@H](CCC(=O)O)C(=O)N[C@@H](Cc1c[nH]cn1)C(=O)N[C@@H](CCSC)C(=O)O)[C@@H](C)CC [VWIIGFEHM] (H-VWIIGFEHM-OH) | 3900
CC(C)C[C@H](NC(=O)[C@H](Cc1c[nH]cn1)NC(=O)[C@@H](N)Cc1c[nH]c2ccccc12)C(=O)N[C@@H](CS)C(=O)N[C@H](C(=O)N[C@@H](CC(C)C)C(=O)N[C@@H](Cc1ccccc1)C(=O)O)C(C)C [WHLCVLF] (H-WHLCVLF-OH) | 1500
CC[C@H](C)[C@H](NC(=O)[C@@H](N)Cc1c[nH]c2ccccc12)C(=O)NCC(=O)N[C@@H](CS)C(=O)N[C@@H](Cc1c[nH]c2ccccc12)C(=O)N[C@@H](CC(=O)O)C(=O)O [WIGCWD] (H-WIGCWD-OH) | 1900

Reference: publication PMC12176101 (Drug Design, Development and Therapy, 2025)
